Data from patent US11716994B2, “Combinations of Yersinia entomophaga and pesticides or other substances” (priority 2017, dated 2023).
Several values for one entry are separate records, joined by “and”; a condition that tells them apart may be missing. Equal values may be shown once. Read-outs that look alike come from different tables or passages of the source.

Tests used:
fall armyworm [1] = assay: Leaf disk mortality assay, Y. entomophaga cells with chemical insecticides; conditions: for % Mortality (3DAT) / LT50 (95% confidence intervals) in days: 4th instar; for % Mort. Chem.: fall armyworm, Esfenvalerate 56 mg/L
black cutworm [2] = tested on: black cutworm
Description: (§2) To produce cell free filtrates, cultures of Yersinia entomophaga grown in LB medium were centrifuged at 11,448 (g) for 10 minutes. The supernatant was decanted from the centrifuged pellet and filtered through a 0.22 μm filter. Assays were performed to determine concentrations of Yen-TC (toxin complex) using ELISA, and chitinase by measuring chitinase activity on specific substrates. […] This was done to estimate relative potency of the cell free filtrates. Insects were first pre-screened with a range of dilutions of cell free filtrates to select a concentration that provided moderate activity. […] Based on these initial screens, undiluted cell free filtrate was used for cabbage looper, fall armyworm, black cutworm, and Colorado potato beetle. […] In each of the Examples below, this is expressed as 1%.
Cabbage leaf disks were dipped in either acetone (controls and Y. entomophaga alone treatments) or in indoxacarb (Sigma 33969) at 0.53 mg/L in acetone. These were set to dry for 1 hr. […] After the cabbage disks had dried for 1 hr, a single 2nd instar black cutworm was added to each individual cabbage disk. A total of 20 insects were evaluate for each treatment. Insects were observed daily and scored as live or dead.
Cabbage leaf disks were dipped in either acetone (controls and Y. entomophaga alone treatments) or in flubendiamide (Sigma 32801) at 0.59 mg/L in acetone. These were set to dry for 1 hr. […] After the cabbage disks had dried for 1 hr, a single 2nd instar black cutworm was added to each individual cabbage disk. A total of 20 insects were evaluate for each treatment. Insects were observed daily and scored as live or dead.

cabbage looper [3] = tested on: cabbage looper
Yersinia entomophaga = assay: CFU counts after exposure of Yersinia entomophaga to insecticides; format: cell-based; conditions: 1 hour contact
Description: To test combinations of Yersinia entomophaga and pesticides for their ability to produce a pesticidal effect, or an effect on plant growth or yield, we first put various insecticides in contact with Yersinia to identify insecticides that had minimal toxicity to Yersinia entomophaga. The logic was that, if Yersinia entomophaga is to function well in combination with a chemical insecticide, the chemical insecticide would ideally have low or no effect on the ability of Yersinia entomophaga to survive, grow and/or to function.
To perform this study, we selected amounts of various insecticides based on the percent of the specific insecticide in the insecticide composition obtained from a manufacturer. We also considered the application rate of the particular insecticide, as recommended by the manufacturer. […] Generally, the 1× amount was considered possibly the lowest amount of insecticide that may be considered as an effective amount for use in the combinations disclosed herein. For each insecticide, we also used a higher amount of insecticide (generally a 5× or 10× amount).
The 1× and 5×/10× amounts of each insecticide were added to tubes along with 1 ml of ethyl acetate. The tubes were mixed until the insecticides dissolved. The tubes were left open in a fume hood overnight to allow the ethyl acetate to evaporate. The insecticide remained in the tubes, as a solid coat on the interior surface of the tubes.
A growing culture of Yersinia entomophaga, grown in LB medium, was diluted and 1 ml of the diluted culture was added to each tube containing the dried insecticide. The tubes were mixed and then left on the bench top for 1 hour. Then, 100 μl from each tube was plated onto LB plates in triplicate in CFU assays. Plates were incubated at 25° C. for 48 hours and colonies were counted.

cabbage looper [4] = tested on: cabbage looper; remark: listed apart in the source
fall armyworm [5] = tested on: fall armyworm
Description: To produce cell free filtrates, cultures of Yersinia entomophaga grown in LB medium were centrifuged at 11,448 (g) for 10 minutes. The supernatant was decanted from the centrifuged pellet and filtered through a 0.22 μm filter. Assays were performed to determine concentrations of Yen-TC (toxin complex) using ELISA, and chitinase by measuring chitinase activity on specific substrates. […] This was done to estimate relative potency of the cell free filtrates. Insects were first pre-screened with a range of dilutions of cell free filtrates to select a concentration that provided moderate activity. […] Based on these initial screens, undiluted cell free filtrate was used for cabbage looper, fall armyworm, black cutworm, and Colorado potato beetle.
Cabbage leaf disks were dipped in either acetone (controls and Y. entomophaga alone treatments) or fipronil (Sigma 46451) at 12 mg/L in acetone. These were set to dry for 1 hr. […] After the cabbage disks had dried for 1 hr, a single 3rd instar fall armyworm was added to each individual cabbage disk. A total of 20 insects were evaluated for each treatment. Insects were observed daily and scored as live or dead.
Cabbage leaf disks were dipped in either acetone (controls and Y. entomophaga alone treatments) or esfenvalerate (Sigma 46277) at 56 mg/L in acetone. These were set to dry for 1 hr. […] After the cabbage disks had dried for 1 hr, a single 3rd instar fall armyworm was added to each individual cabbage disk. A total of 20 insects were evaluate for each treatment. Insects were observed daily and scored as live or dead.

black cutworm [6] = assay: Leaf disk mortality assay, Y. entomophaga cells with chemical insecticides; conditions: for % Mort. Chem. / LT50 Chem.: black cutworm
Colorado potato beetle [7] = conditions: thiacloprid 1 mg/L
Description: as §2
Tomato leaf disks were dipped in either acetone (controls and Y. entomophaga alone treatments) or thiacloprid (Sigma 37905) at 1 mg/L in acetone. These were set to dry for 1 hr. […] After the tomato disks had dried for 1 hr, a single 3rd instar Colorado potato beetle was added to each individual cabbage disk. A total of 20 insects were evaluate for each treatment. Insects were observed daily and scored as live or dead.

Colorado potato beetle [8] = assay: Tomato leaf disk mortality assay, Y. entomophaga cells with chemical insecticides; conditions: for mortality at 1 µg/mL: Leptinotarsa decemlineata, in Solanum lycopersicum, foliar
diamondback moth = assay: whole plant or invertebrate; conditions: thiacloprid 100 mg/L; for mortality at 100 µg/mL: Plutella xylostella, foliar, Abbott's corrected
Description: (§1) These were set to dry for 1 hr.
as §1
These were set to dry for 1 hr. Cabbage disks were then dipped in either 1% Luria broth (LB) media solution (controls and thiacloprid alone treatments) or in 1% cell free filtrate from a culture Y. entomophaga isolate O24G3R (Y. entomophaga alone or in combination with thiacloprid treatments).

[9] = 3rd instar, esfenvalerate 5.6 mg/L, isolate O24G3R 1×10^4 cfu/mL
[10] = 3rd instar, esfenvalerate 56 mg/L, isolate O43NEW 1×10^6 cfu/mL
[11] = esfenvalerate 56 mg/L, isolate O23ZMJ 1×10^5 cfu/mL
[12] = esfenvalerate 56 mg/L, isolate O24G3R 1×10^5 cfu/mL
[13] = esfenvalerate 56 mg/L, isolate O348UX 1×10^5 cfu/mL
[14] = 3rd instar, esfenvalerate 5.6 mg/L, isolate O23ZMJ 1×10^5 cfu/mL
[15] = 3rd instar, esfenvalerate 5.6 mg/L, isolate O24G3R 1×10^5 cfu/mL
[16] = 3rd instar, esfenvalerate 5.6 mg/L, isolate O43NEW 1×10^5 cfu/mL
[17] = 3rd instar, esfenvalerate 5.6 mg/L, isolate O348UX 1×10^5 cfu/mL

SMILES: CC(C)[C@H](C(=O)O[C@H](C#N)c1cccc(Oc2ccccc2)c1)c1ccc(Cl)cc1 [Esfenvalerate]
- % Mortality (6DAT) (fall armyworm [1]; [9]): 0%
- LT50 (95% confidence intervals) (fall armyworm [1]; [9]): 20.00 days
- % Mortality (5DAT) (fall armyworm [1]; [10]): 5%
- % Mortality (7DAT) (fall armyworm [1]; [10]): 5%
- % Mortality (9DAT) (fall armyworm [1]; [10]): 11%
- % Mortality (11DAT) (fall armyworm [1]; [10]): 6%
- LT50 (95% confidence intervals) (fall armyworm [1]; [10]): 13.6 days
- % Mortality (3DAT) (fall armyworm [1]; [11]): 25%
- LT50 (95% confidence intervals) in days (fall armyworm [1]; [11]): 3.66 (3.28-4.09) days
- % Mortality (3DAT) (fall armyworm [1]; [12]): 25%
- LT50 (95% confidence intervals) in days (fall armyworm [1]; [12]): 3.66 (3.28-4.09) days
- % Mortality (3DAT) (fall armyworm [1]; [13]): 25%
- LT50 (95% confidence intervals) in days (fall armyworm [1]; [13]): 3.66 (3.28-4.09) days
- % Mort. Chem. (fall armyworm [1]; 3 DAT (row with O23ZMJ)): 25%
- % Mort. Chem. (fall armyworm [1]; 3 DAT (row with O24G3R 1 × 10^5)): 25%
- % Mort. Chem. (fall armyworm [1]; 3 DAT (row with O348UX)): 25%
- % Mort. Chem. (fall armyworm [1]; 5 DAT): 5%
- % Mort. Chem. (fall armyworm [1]; 6 DAT): 0%
- LT50 Chem. (black cutworm [2]; Black cutworm, esfenvalerate 5.6 mg/L): 3.68 days
- % Mort. Chem. (black cutworm [2]; Black cutworm, esfenvalerate 5.6 mg/L, 6 DAT): 84%
- % Mortality (6DAT) (black cutworm [2]; in vivo): 84%
- LT50 (95% confidence intervals) (black cutworm [2]; in vivo): 3.68 days
- LT50 Chem. (cabbage looper [3]; Cabbage Looper, esfenvalerate 0.56 mg/L): 5.23 days
- % Mort. Chem. (cabbage looper [3]; Cabbage Looper, esfenvalerate 0.56 mg/L, 5 DAT): 40%
- % Mortality (5DAT) (cabbage looper [3]; in vivo): 40%
- % Mortality (6DAT) (cabbage looper [3]; in vivo): 70%
- % Mortality (8DAT) (cabbage looper [3]; in vivo): 83%
- LT50 (95% confidence intervals) in days (cabbage looper [3]; in vivo): 5.23 (4.69-5.79) days
- Average CFU (Yersinia entomophaga; 0.8 mg insecticide): 258 CFU
- Average CFU (Yersinia entomophaga; 5.3 mg insecticide): 0 CFU
- % Mort. Chem. (cabbage looper [4]; cabbage looper, Esfenvalerate 0.56 mg/L, 7 DAT): 37%
- LT50 Chem. (cabbage looper [4]; cabbage looper, Esfenvalerate alone 0.56 mg/L): 5.63 days
- % Mortality (2DAT) (cabbage looper [4]; in vivo): 5%
- LT50 (95% confidence intervals) in days (cabbage looper [4]; in vivo): 5.63 (5.19-6.11) days
- LT50 Chem. (fall armyworm [5]; Fall armyworm, esfenvalerate 56 mg/L): 9.84 days
- % Mort. Chem. (fall armyworm [5]; fall armyworm, Esfenvalerate 56 mg/L, 5 DAT): 40%
- % Mortality (5DAT) (fall armyworm [5]; in vivo): 40%
- % Mortality (7DAT) (fall armyworm [5]; in vivo): 45%
- LT50 (95% confidence intervals) (fall armyworm [5]; in vivo): 9.84 days
- % Mortality (3DAT) (black cutworm [6]; [14]): 42%
- % Mortality (4DAT) (black cutworm [6]; [14]): 61%
- LT50 (95% confidence intervals) in days (black cutworm [6]; [14]): 3.40 (3.03-3.81) days
- % Mortality (5DAT) (black cutworm [6]; [15]): 50%
- % Mortality (6DAT) (black cutworm [6]; [15]): 56%
- % Mortality (7DAT) (black cutworm [6]; [15]): 69%
- LT50 (95% confidence intervals) in days (black cutworm [6]; [15]): 5.29 (4.75-5.87) days
- % Mortality (3DAT) (black cutworm [6]; [16]): 40%
- % Mortality (4DAT) (black cutworm [6]; [16]): 45%
- LT50 (95% confidence intervals) in days (black cutworm [6]; [16]): 3.97 (3.60-4.38) days
- % Mortality (5DAT) (black cutworm [6]; [17]): 50%
- % Mortality (6DAT) (black cutworm [6]; [17]): 56%
- % Mortality (7DAT) (black cutworm [6]; [17]): 69%
- LT50 (95% confidence intervals) (black cutworm [6]; [17]): 5.29 days
- % Mort. Chem. (black cutworm [6]; Esfenvalerate 1.87 mg/L, 5 DAT (row with O24G3R)): 50%
- % Mort. Chem. (black cutworm [6]; Esfenvalerate 1.87 mg/L, 5 DAT (row with O348UX)): 50%
- % Mort. Chem. (black cutworm [6]; Esfenvalerate 5.6 mg/L, 4 DAT (row with O23ZMJ)): 61%
- % Mort. Chem. (black cutworm [6]; Esfenvalerate 5.6 mg/L, 4 DAT (row with O43NEW)): 45%
- LT50 Chem. (black cutworm [6]; Esfenvalerate alone 1.87 mg/L): 5.29 days
- LT50 Chem. (black cutworm [6]; Esfenvalerate alone 5.6 mg/L): 3.97 days and 3.40 days

SMILES: N#C/N=C1\SCCN1Cc1ccc(Cl)nc1 [Thiacloprid]
- LT50 (95% confidence intervals) (Colorado potato beetle [7]; 3rd instar Colorado potato beetle, O43NEW undiluted filtrate, alone or combined): 12.71 days
- LT50 Chem. (Colorado potato beetle [7]; Colorado potato beetle): 12.71 days
- % Mort. Chem. (Colorado potato beetle [7]; Colorado potato beetle, 6 DAT): 13%
- LT50 (95% confidence intervals) in days (Colorado potato beetle [8]; 2nd instar larva, thiacloprid 1 mg/L, isolate O43NEW 1×10^6 cfu/mL): 6.99 (6.44-7.58) days
- % Mort. Chem. (Colorado potato beetle [8]; Colorado potato beetle, Thiacloprid 1 mg/L, 5 DAT): 26%
- LT50 Chem. (Colorado potato beetle [8]; Colorado potato beetle, Thiacloprid alone 1 mg/L): 6.99 days
- mortality at 1 µg/mL (Colorado potato beetle [8]; 96 h, read-out: % Mortality (4DAT)): 26%
- mortality at 1 µg/mL (Colorado potato beetle [8]; 120 h, read-out: % Mortality (5DAT)): 26%
- LT50 (95% confidence intervals) (diamondback moth; 2nd instar diamondback moth, O24G3R filtrate 1%, alone or combined): 12.58 days
- LT50 Chem. (diamondback moth; Diamondback moth): 12.58 days
- % Mort. Chem. (diamondback moth; Diamondback moth, 7 DAT): 17%
- mortality at 100 µg/mL (diamondback moth; 96 h, read-out: % Mortality (4DAT), 2nd instar diamondback moth, O24G3R filtrate 1%, alone or combined, 4 DAT): 5%
- mortality at 100 µg/mL (diamondback moth; 120 h, read-out: % Mortality (5DAT), 2nd instar diamondback moth, O24G3R filtrate 1%, alone or combined, 5 DAT): 10%
- mortality at 100 µg/mL (diamondback moth; 144 h, read-out: % Mortality (6DAT), 2nd instar diamondback moth, O24G3R filtrate 1%, alone or combined, 6 DAT): 10%
- mortality at 100 µg/mL (diamondback moth; 168 h, read-out: % Mortality (7DAT), 2nd instar diamondback moth, O24G3R filtrate 1%, alone or combined, 7 DAT): 17%
- mortality at 100 µg/mL (diamondback moth; 288 h, read-out: % Mortality (12DAT), 2nd instar diamondback moth, O24G3R filtrate 1%, alone or combined, 12 DAT): 27%
- mortality at 100 µg/mL (diamondback moth; 312 h, read-out: % Mortality (13DAT), 2nd instar diamondback moth, O24G3R filtrate 1%, alone or combined, 13 DAT): 33%
